In US20260347403A1, “FUNGICIDAL COMPOUND” (priority 2022, published 2026):
Numbered stars: 1 amine (or outer) side, 2 acyl side, 3 side chain; on linkers, the order of the positions; unused ones are H or OH. Bridge positions count the residues as written; N and C are the ends. Square brackets hold non-standard residues; d marks the D form. Peptide text beside a SMILES is read from it. * marks the point of attachment. X4 = NC(=O)C[C@@H](O)[C@@H](N[*:1])C(=O)[*:2]; d(aThr) = C[C@@H](O)[C@@H](N)C(=O)O; NMeF = CN[C@@H](Cc1ccccc1)C(=O)O; X3 = CC[C@@H](C)CCCCCCCCCCC(=O)*; dNMeN = CN[C@H](CC(N)=O)C(=O)O

Experiments:
Zymoseptoria tritici = assay: Liquid culture, Zymoseptoria tritici (Septoria tritici), Septoria leaf blotch, 4-5 days; assay type: cell-based; settings: Table 3
Method: (§1) Mycelia fragments or conidia suspensions of a fungus, prepared either freshly from liquid cultures of the fungus or from cryogenic storage, were directly mixed into nutrient broth.
(§2) A stock solution for compound of Formula I(a) and Formula I(b) was produced in DMSO (max. 10 mg/ml), which was diluted with water plus 0.025% Tween®20 to produce a 10× concentrated sample and 10 μl of this solution was pipetted into a microtiter plate (96-well format). The nutrient broth containing the fungal spores/mycelia fragments was then added to give an end concentration of the tested compound. The test plates were incubated in the dark at 24 °C and 96% rh. The inhibition of fungal growth was determined photometrically after 2-7 days, depending on the pathosystem, and percent antifungal activity relative to the untreated check was calculated.
(§3) The effect of the test compound (Formula I(a), I(b) and Lipopeptin A) was tested against the following fungi under the conditions as outlined above and specifically herein below:
Zymoseptoria tritici (Septoria tritici)/liquid culture (Septoria leaf blotch) Conidia of the fungus from cryogenic storage were directly mixed into nutrient broth (PDB potato dextrose broth). The inhibition of growth was determined photometrically 4-5 days after application.

[1] = test system: Puccinia recondita f. sp. tritici; assay: Leaf disc/segment test on wheat, Puccinia recondita f. sp. tritici (Brown Rust), 7-9 days after application; assay type: in vivo; settings: Table 5
Method: (§4) Leaf disks or leaf segments of various plant species were cut from plants grown in the greenhouse. The cut leaf disks, or segments were placed in multiwell plates (24-well format) onto water agar. The leaf disks were sprayed with a test solution before inoculation with the fungal spores. Compounds to be tested were prepared as DMSO solutions (max. 10 mg/ml) which were diluted to the appropriate concentration with water plus 0.025% Tween® 20 just before spraying. The inoculated leaf disks or segments were incubated under defined conditions (temperature, relative humidity, light, etc.) according to the respective test system. A single evaluation of disease level was carried out by visual evaluation 3-9 days days after inoculation, depending on the pathosystem as indicated below. Percent disease control relative to the untreated check leaf disks or segments was then calculated.
Puccinia recondita f. Sp. Tritici/Wheat/Leaf Disc (Brown Rust)
Wheat leaf segments cv. Kanzler were placed on agar in multiwell plates (24-well format) and sprayed with the formulated test compound diluted in water. The leaf disks were inoculated with a spore suspension of the fungus 1 day after application. The inoculated leaf segments were incubated at 19 °C and 75% rh under a light regime of 12 h light/12 h darkness in a climate cabinet and the activity of a compound was assessed as percent disease control compared to untreated when an appropriate level of disease damage appears in untreated check leaf segments (7-9 days after application).

Phaeosphaeria nodorum = assay: Leaf disc test on wheat, Phaeosphaeria nodorum (Glume Blotch), 5-7 days after application; assay type: in vivo, Phaeosphaeria nodorum (Septoria nodorum) on wheat; settings: Table 5
Method: as §4
Phaeosphaeria Nodorum (Septoria nodorum)/Wheat/Leaf Disc (Glume Blotch)
Wheat leaf segments cv. Kanzler were placed on agar in a multiwell plate (24-well format) and sprayed with the formulated test compound diluted in water. The leaf disks were inoculated with a spore suspension of the fungus 2 days after application. The inoculated test leaf disks were incubated at 20 °C and 75% rh under a light regime of 12 h light/12 h darkness in a climate cabinet and the activity of a compound was assessed as percent disease control compared to untreated when an appropriate level of disease damage appears in untreated check leaf disks (5-7 days after application)

[2] = test system: several phytopathogenic fungi; assay: Liquid culture assays, summary over the fungi tested; assay type: cell-based; settings: Tables 2 and 3; relative to the other compounds
Method: as §1, §2
The effect of the test compound (Formula I(a), I(b) and Lipopeptin A) was tested against the following fungi under the conditions as outlined above and specifically herein below: […]

Glomerella lagenarium = assay: Liquid culture, Glomerella lagenarium (Colletotrichum lagenarium), Anthracnose, 3-4 days; assay type: cell-based; settings: Table 3
Method: as §1, §2, §3
Glomerella lagenarium (Colletotrichum lagenarium)/Liquid Culture (Anthracnose)
Conidia of the fungus from cryogenic storage were directly mixed into nutrient broth (PDB potato dextrose broth). The inhibition of growth was measured photometrically 3-4 days after application.

several fungal species = assay: Leaf disc or leaf segment tests, summary over the fungi tested; assay type: in vivo; settings: Tables 4 and 5; relative to the other compounds
Method: as §4

Botryotinia fuckeliana = assay: Liquid culture, Botryotinia fuckeliana (Botrytis cinerea), Gray Mould, 3-4 days; assay type: cell-based; settings: Table 3
Method: as §1, §2, §3
Botryotinia fuckeliana (Botrytis cinerea)/Liquid Culture (Gray Mould)
Conidia of the fungus from cryogenic storage were directly mixed into nutrient broth (Vogels broth). The inhibition of growth is determined photometrically 3-4 days after application.

Pyrenophora teres = assay: Leaf disc preventative test on barley, Pyrenophora teres (Net Blotch), 5-7 days after application; assay type: in vivo; settings: Table 5
Method: as §4
Pyrenophora teres/Barley/Leaf Disc Preventative (Net Blotch)
Barley leaf segments cv. Hasso were placed on agar in a multiwell plate (24-well format) and sprayed with the formulated test compound diluted in water. The leaf segments were inoculated with a spore suspension of the fungus 2 days after application. The inoculated leaf segments were incubated at 20 °C and 65% rh under a light regime of 12 h light/12 h darkness in a climate cabinet and the activity of a compound was assessed as disease control compared to untreated when an appropriate level of disease damage appears in untreated check leaf segments (5-7 days after application).

Mycosphaerella arachidis = assay: Liquid culture, Mycosphaerella arachidis (Cercospora arachidicola), early leaf spot, 4-5 days; assay type: cell-based; settings: Table 3
Method: as §1, §2, §3
Mycosphaerella arachidis (Cercospora arachidicola)/liquid culture (early leaf spot) Conidia of the fungus from cryogenic storage were directly mixed into nutrient broth (PDB potato dextrose broth). The inhibition of growth was determined photometrically 4-5 days after application.

[3] = test system: ROS production induced by flg22; assay: Reactive Oxygen Species (ROS) burst assay with wheat leaf discs; settings: Triticum aestivum, foliar, read-out: Fold change (peak ROS)

CC[C@@H](C)CCCCCCCCCCC(=O)N[C@H]1C(=O)N[C@@H](CC(=O)O)C(=O)N[C@H](CO)C(=O)N[C@@H](CO)C(=O)N(C)[C@H](CC(N)=O)C(=O)N(C)[C@@H](Cc2ccccc2)C(=O)N[C@H]([C@H](O)CC(N)=O)C(=O)N[C@H](CCC(=O)O)C(=O)O[C@@H]1C [Lipopeptin A, reference compound] (X3-[d(aThr)]D[dS]S[dNMeN][NMeF][X4][dE]; ester 1-C)
% reduction fungal growth (Zymoseptoria tritici; 0.41 ppm): 0%
% reduction fungal growth (Zymoseptoria tritici; 1.2 ppm): 0%
% reduction fungal growth (Zymoseptoria tritici; 3.7 ppm): 0%
% reduction fungal growth (Zymoseptoria tritici; 11 ppm): 0%
% reduction fungal growth (Zymoseptoria tritici; 33 ppm): 0%
% reduction fungal growth (Zymoseptoria tritici; 100 ppm): 70%
% reduction of fungal growth ([1]; 0.82 ppm): 0%
% reduction of fungal growth ([1]; 2.5 ppm): 0%
% reduction of fungal growth ([1]; 7.4 ppm): 0%
% reduction of fungal growth ([1]; 22 ppm): 0%
% reduction of fungal growth ([1]; 67 ppm): 0%
% reduction of fungal growth ([1]; 200 ppm): 35%
% reduction of fungal growth (Phaeosphaeria nodorum; 0.82 ppm): 0%
% reduction of fungal growth (Phaeosphaeria nodorum; 2.5 ppm): 0%
% reduction of fungal growth (Phaeosphaeria nodorum; 7.4 ppm): 0%
% reduction of fungal growth (Phaeosphaeria nodorum; 22 ppm): 0%
% reduction of fungal growth (Phaeosphaeria nodorum; 67 ppm): 0%
% reduction of fungal growth (Phaeosphaeria nodorum; 200 ppm): 0%
activity in liquid culture in words [2]: less active
% reduction fungal growth (Glomerella lagenarium; 0.41 ppm): 0%
% reduction fungal growth (Glomerella lagenarium; 1.2 ppm): 0%
% reduction fungal growth (Glomerella lagenarium; 3.7 ppm): 0%
% reduction fungal growth (Glomerella lagenarium; 11 ppm): 0%
% reduction fungal growth (Glomerella lagenarium; 33 ppm): 0%
% reduction fungal growth (Glomerella lagenarium; 100 ppm): 0%
activity on leaf discs in words (several fungal species): less active
% reduction fungal growth (Botryotinia fuckeliana; 0.41 ppm): 0%
% reduction fungal growth (Botryotinia fuckeliana; 1.2 ppm): 0%
% reduction fungal growth (Botryotinia fuckeliana; 3.7 ppm): 0%
% reduction fungal growth (Botryotinia fuckeliana; 11 ppm): 0%
% reduction fungal growth (Botryotinia fuckeliana; 33 ppm): 0%
% reduction fungal growth (Botryotinia fuckeliana; 100 ppm): 0%
% reduction of fungal growth (Pyrenophora teres; 0.82 ppm): 0%
% reduction of fungal growth (Pyrenophora teres; 2.5 ppm): 0%
% reduction of fungal growth (Pyrenophora teres; 7.4 ppm): 0%
% reduction of fungal growth (Pyrenophora teres; 22 ppm): 0%
% reduction of fungal growth (Pyrenophora teres; 67 ppm): 0%
% reduction of fungal growth (Pyrenophora teres; 200 ppm): 0%
% reduction fungal growth (Mycosphaerella arachidis; 0.41 ppm): 0%
% reduction fungal growth (Mycosphaerella arachidis; 1.2 ppm): 0%
% reduction fungal growth (Mycosphaerella arachidis; 3.7 ppm): 0%
% reduction fungal growth (Mycosphaerella arachidis; 11 ppm): 0%
% reduction fungal growth (Mycosphaerella arachidis; 33 ppm): 0%
% reduction fungal growth (Mycosphaerella arachidis; 100 ppm): 0%

O=C(O)c1cc(Cl)nc(Cl)c1 [INA, 2.6-dichloro-isonicotinic acid, reference compound]
fold induction at 100 ppm [3]: 1.8
